According to US6897199B2, “Pharmaceutically acceptable salts of phenoxazine and phenothiazine compounds” (Dr. Reddy's Laboratories Ltd., priority 2001, dated 2005):
Structures can show the parent of a compound that is named as a salt.

How the values were obtained:
[1] = tested on: hypercholesterolemic rat models; assay: Plasma triglyceride and cholesterol lowering activity in hypercholesterolemic rat models; format: in vivo, Male Sprague Dawley rats; conditions: dose 10 mg/kg orally for 3 days
Method: b) Plasma triglyceride and Cholesterol Lowering Activity in Hypercholesterolemic Rat Models
Male Sprague Dawley rats (NIN stock) were bred in DRF animal house. Animals were maintained under 12 hour light and dark cycle at 25±1° C. Rats of 180-200 gram body weight range were used for the experiment. Animals are made hypercholesterolemic by feeding 2% cholesterol and 1% sodium cholate mixed with standard laboratory chow [National Institute of Nutrition (NIN), Hyderabad, India] for 6 days. Throughout the experimental period the animals are maintained on the same diet (Petit, D., Bonnefis, M. T., Rey, C and Infante, R. Effects of ciprofibrate on liver lipids and lipoprotein synthesis in normo- and hyperlipidemic rats. Atherosclerosis. 1988.74: 215-225).
The test compounds were administered orally at a dose 0.1 to 30 mg/kg/day for 3 days. Control group is treated with vehicle alone (0.25% Carboxymethylcellulose; dose 10 ml/kg).
The blood samples were collected in fed state 1 hour after drug administration on 0 and 3 day of compound treatment. The blood was collected from the retro-orbital sinus through heparinised capillary in EDTA containing tubes. After centrifugation, plasma sample is separated for total cholesterol, HDL and triglyceride estimations. Measurement of plasma triglyceride (TG), total cholesterol (TC) and HDL are done using commercial kits (Dr. Reddy's Laboratory, Diagnostic Division, India). LDL and VLDL cholesterol were calculated from the data obtained for total cholesterol, HDL and triglyceride. The reduction of various parameters examined are calculated according to the formula given below.
Formulae for Calculation: • 1. Percent reduction in Blood sugar/triglycerides/total cholesterol were calculated according to the formula: [formula] • OC=Zero day control group value • OT=Zero day treated group value • TC=Test day control group value • TT=Test day treated group value • 2. LDL and VLDL cholesterol levels were calculated according to the formula: [formula] VLDL cholesterol in mg/dl=[Total cholesterol−HDL cholesterol−LDL cholesterol]mg/dl.

[2] = biological target: T1, hPPARα (Homo sapiens, UniProt Q07869); conditions: compound concentration 50 μM; luciferase activity, HEK-293 cells
T1 sequence (Q07869 239-466 limits assumed): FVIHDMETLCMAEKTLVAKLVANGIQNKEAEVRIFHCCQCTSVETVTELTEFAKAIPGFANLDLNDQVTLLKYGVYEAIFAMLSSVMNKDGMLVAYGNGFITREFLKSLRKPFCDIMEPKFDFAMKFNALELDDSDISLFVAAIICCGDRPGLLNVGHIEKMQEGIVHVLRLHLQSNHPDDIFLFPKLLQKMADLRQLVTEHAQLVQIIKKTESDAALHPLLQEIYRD
Method: a) Determination of hPPARα Activity
Ligand binding domain of hPPARα was fused to DNA binding domain of Yeast transcription factor GAL4 in eucaryotic expression vector. Using superfect (Qiagen, Germany) as transfecting reagent HEK-293 cells were transfected with this plasmid and a reporter plasmid harboring the luciferase gene driven by a GAL4 specific promoter. Compound was added at different concentrations after 42 hrs of transfection and incubated overnight.

## CCO[C@@H](Cc1ccc(OCCN2c3ccccc3Oc3ccccc32)cc1)C(=O)O [Example 3, (−)-3-[4-[2-(Phenoxazin-10-yl)ethoxy]phenyl]-2-ethoxypropanoic acid metformin salt]
[1]; LDL cholesterol calculated from TC, HDL and TG
  LDL: 46
[1]; VLDL cholesterol calculated from TC, HDL and TG
  VLDL: 82
[1]; plasma HDL
  HDL: 64
[1]; plasma total cholesterol, percent reduction by formula of b285
  TC: 82
[1]; plasma triglyceride, percent reduction by formula of b285
  TG: 47

## (−)-3-[4-[2-(Phenoxazin-10-yl)ethoxy]phenyl]-2-ethoxypropanoic acid phenylglycinol salt [Example 12]
[2]
  PPARα: 3.7
